Tested on: Agaricus bisporus mycelium
Test: Stimulation of the growth of Agaricus bisporus mycelium on PDA culture medium
Type: cell-based
Settings: for effect on the growth of the Agaricus bisporus mycelium: purified terpene at 40 μL/L, TripleX make (Amycel)
Procedure: • Mixing, in a sterile container, the essential oil or oils or the terpene or terpenes selected according to the invention, with the surfactant or surfactants, in equal portions: […], therefore preparing 200 μl in total.
• Preparing 2 times 1 litre of PDA in accordance with the instructions of the supplier, in separate containers. • Sterilising the two solutions at the same time, 15 minutes at 121° C. in an autoclave.
• Waiting until the two solutions drop in temperature, to reach approximately 40° C. • Homogenising and then pouring the composition of biostimulants, into one of the two containers. • Pouring the same volume of the surfactant or surfactants used, into the second container. • Placing under stirring, and then pouring the 2 litres of solutions into annotated petri dishes. • Placing the petri dishes in an incubator at 23° C.±1° C. and 80% humidity.
• Inoculating all the petri dishes with the mushroom strain selected. • Re-placing the petri dishes in an incubator at 23° C.±1° C. and 80% humidity.
• After 7 days, tracing the contour of the mycelium under the petri dishes, with a fine marker. • Once again tracing the contour of the mycelium after 14 and 21 days following the inoculation. • Measuring its growth to within 0.5 mm, on 4 axes separated by 90°, for each petri dish. • Calculating the mean growths measured, then determining the percentage inhibition or biostimulation compared with the reference, which contains only the surfactant or surfactants, without the essential oil or oils or the terpene and terpenes use.
The manipulations for each essential oil tested were reproduced 40 times, using the Agaricus bisporus mycelium of Heirloom make, supplied by the American company Amycel.
The tests were performed on three strains of Agaricus bisporus (of Heirloom and TripleX makes from the company Amycel and Tuscan from the company Sylvan) with the purified terpene ([…]. […]

| SMILES | effect on the growth of the Agaricus bisporus mycelium | effect on the growth of the mycelia of three strains of Agaricus bisporus (purified terpene, Heirloom and TripleX makes at 40 or 80 μL/L, Tuscan make at 80 or 100 μL/L, effect reinforced by increasing the concentration) |
| --- | --- | --- |
| CC1=CCC2CC1C2(C)C (stereo not drawn) [α-pinene, reference compound] | inhibiting effect |  |
| C=C1CCC2CC1C2(C)C (stereo not drawn) [β-pinene] | biostimulant effect | very marked effect of biostimulation |

— patent publication US20240268380A1, “USE OF ESSENTIAL OILS AS BIOSTIMULANTS FOR MYCELIA AND MUSHROOMS” (MYCELIANCE, priority 2021, published 2024)
